Reference: US11279703B2, “Fused pyrimidine compounds as BRD4 and JAK2 dual inhibitors and methods for use thereof” (APTOSE BIOSCIENCES INC., priority 2016, dated 2022)

Tests used:
BRD4-BD1 = BRD4-BD1 (Homo sapiens (Human), UniProt O60885); test: AlphaLisa bromodomain binding assay, BRD4-BD1; conditions: Table 6; read-out: BRD4(1) IC50
Text: An AlphaLisa assay was used to observe bromodomain binding and measure IC50s for the compounds disclosed herein. An AlphaLisa assay is a bead-based assay used to detect interactions between bromodomains and polyacetylated histone peptides. Donor and acceptor beads bound to target and ligand are brought into proximity by this protein-protein interaction.
Equipment Required • 1. […] Plate centrifuge • 3. Plate shaker • 4. […] Single channel and multi-channel pipettes • 6. Microplate reader (Pherastar)
(§1) Stock and Final Assay Concentrations (FAC) • 1. All reference and test compounds are made at a concentration of 10 mM in DMSO. Compounds are serially diluted in DMSO and a FAC starting from 10 μM to 10 point 3 fold serial dilutions is arrived. FAC of DMSO is 1%. • 2. Enzyme stock and FAC
Biotinylated substrate (Acetylated histone H4, biotinylated substrate—cat no. AS64989-025, Anaspec) stock and FAC
• 4. Acceptor and donor beads stock and FAC
Buffers • For the enzyme and substrate dilution following buffer is used (for 50 ml) • HEPES: 50 mM 2.5 ml • NaCl: 25 mM 1.25 ml • DTT: 10 mM 0.05 ml • BSA: 0.1% 0.05 g • MilliQ water: 45.7 ml • For dilution of acceptor and donor beads AlphaLISA 5× epigenetics Buffer Perkin Elmer (Cat: AL008C) is used at 1× concentration.
Procedure • 1. […] Tap the plate gently • 3. […] Cover with plate sealer • 5. […] Incubate the plate at room temperature for 10 minutes • 7. Add 10 μl of the substrate • 8. Cover with plate sealer • 9. […] Cover with plate sealer • 14. […] Cover with plate sealer • 18.
(§2) The percent inhibition is calculated in the excel analysis template and the IC50 values are subsequently determined using a sigmoidal dose-response curve (variable slope) using GraphPad Prism® 5 software.

JAK2 = JAK2 (Homo sapiens (Human), UniProt O60674); test: HTRF kinase assay, JAK2; format: biochemical; conditions: Table 6
Sequence of JAK2 (O60674 whole entry): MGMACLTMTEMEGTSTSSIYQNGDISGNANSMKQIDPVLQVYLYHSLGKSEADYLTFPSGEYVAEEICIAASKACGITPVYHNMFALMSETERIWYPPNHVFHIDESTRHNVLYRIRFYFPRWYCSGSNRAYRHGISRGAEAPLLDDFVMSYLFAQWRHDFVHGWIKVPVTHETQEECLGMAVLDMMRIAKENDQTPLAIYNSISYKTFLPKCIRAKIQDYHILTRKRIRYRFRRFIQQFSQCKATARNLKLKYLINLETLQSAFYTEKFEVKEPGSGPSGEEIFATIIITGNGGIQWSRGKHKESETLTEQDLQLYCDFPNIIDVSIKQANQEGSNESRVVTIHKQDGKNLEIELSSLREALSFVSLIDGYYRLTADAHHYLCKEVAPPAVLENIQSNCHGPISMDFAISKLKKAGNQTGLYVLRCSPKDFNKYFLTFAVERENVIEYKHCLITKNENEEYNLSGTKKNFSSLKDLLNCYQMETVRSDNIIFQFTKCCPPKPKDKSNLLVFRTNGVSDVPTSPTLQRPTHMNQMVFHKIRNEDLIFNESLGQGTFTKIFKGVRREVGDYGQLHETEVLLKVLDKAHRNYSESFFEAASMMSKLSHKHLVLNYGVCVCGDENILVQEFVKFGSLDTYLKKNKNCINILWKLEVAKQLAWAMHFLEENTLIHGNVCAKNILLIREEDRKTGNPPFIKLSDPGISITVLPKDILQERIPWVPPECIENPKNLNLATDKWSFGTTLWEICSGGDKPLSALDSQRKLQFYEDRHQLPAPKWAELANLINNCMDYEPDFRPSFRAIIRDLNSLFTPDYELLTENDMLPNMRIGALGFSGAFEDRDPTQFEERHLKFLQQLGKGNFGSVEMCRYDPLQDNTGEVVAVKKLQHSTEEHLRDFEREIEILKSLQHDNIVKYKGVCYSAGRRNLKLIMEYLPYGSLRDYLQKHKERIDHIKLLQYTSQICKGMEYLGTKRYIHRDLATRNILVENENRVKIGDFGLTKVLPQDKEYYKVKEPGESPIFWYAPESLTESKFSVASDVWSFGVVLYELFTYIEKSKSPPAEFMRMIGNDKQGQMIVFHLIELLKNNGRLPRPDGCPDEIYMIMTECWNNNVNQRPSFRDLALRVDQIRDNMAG
Text: A kinase assay with HTRF was used to observe JAK activity and calculate the IC50s of compounds disclosed herein. HTRF is an enzymatic assay used to determine the amount of phosphorylated peptide. FRET (Fluorescence Resonance Energy Transfer) is based on the transfer of energy between two fluorophores—a donor and an acceptor—when in close proximity. Molecular interactions between biomolecules can be assessed by coupling each partner with a fluorescent label and by detecting the level of energy transfer. The amount of phopshorylated peptide can be detected using a combination of a Eu 3+Cryptate labeled anti-phospho residue antibody, SA-XL665 and a biotinylated substrate. The signal is proportional to the concentration of phospho-residues.
Equipment Required • 1. […] Plate centrifuge • 3. Plate shaker • 4. […] Single channel and multi-channel pipettes • 6. Microplate reader (Pherastar)]
as §1, with “arrived. For Ruxolitinib the starting FAC is 1 μM.” for “arrived.”
• JAK-1: Invtirogen Cat: PR8767C • JAK-2: Invtirogen Cat: PR7820B • JAK-3: Invtirogen Cat: PR7507B • 3. Substrate (synthetic peptide-Biotinylated-N-terminal tag-[…] from Biopeptide) stock and FAC
• Adenosine 5′-triphosphate disodium salt hydrate: Sigma Cat: A26209 • 5. […] Buffers • Base buffer (for 50 ml)
• HTRF buffer: • 50 mM Tris-HCl, pH—7.5 • 100 mM NaCl • 0.1% BSA • 0.05% Tween20 • 0.5 mM EDTA
To a 384 well black-plate: • 1. Add 17 μL of the buffer to each well of the 384-well black plate • 2. […] Add 5 μl of the enzyme to each well of the plate • 4. Add 10 μl of the substrate and ATP mix to all the wells • 5. Cover with plate sealer • 6. […] Incubate at room temperature for 1 hour on shaker • 8. […] Add 37.5 μL of the HTRF mix to these wells. • 9. Incubate the plate at room temperature on shaker for 45 minutes. • 10.
as §2

Row | IC50 (BRD4-BD1) | IC50 (JAK2) | SMILES
1 | 776 nM | 35 nM | CN1CCC(NC(=O)c2ccc(Nc3ncc4ccn(-c5ccc(F)c(NS(=O)(=O)C6CC6)c5)c4n3)cc2F)CC1
2 | 722 nM | 11 nM | Cc1cc(Nc2ncc3ccn(-c4cccc(NS(=O)(=O)C(C)(C)C)c4)c3n2)ccc1N1CCN(C)CC1
3 | 1600 nM | 2800 nM | COc1cc(N2CCN(C)CC2)ccc1Nc1ncc2ccn(-c3cccc(NS(=O)(=O)C(C)(C)C)c3)c2n1
4 | 1590 nM | 69 nM | O=C(NC1CCNCC1)c1ccc(Nc2ncc3ccn(-c4cccc(NS(=O)(=O)C5CC5)c4)c3n2)cc1F
5 | 7080 nM | 10000 nM | CN1CCC(Nc2nc(Nc3cccc(NS(=O)(=O)C(C)(C)C)c3)c3cc[nH]c3n2)CC1
6 | 372 nM | 177 nM | CN1CCC(NC(=O)c2ccc(Nc3ncc4ccn(-c5ccc(F)c(NS(=O)(=O)C(C)(C)C)c5)c4n3)cc2)CC1
7 | 649 nM | 24 nM | CC(C)(C)S(=O)(=O)Nc1cccc(-n2ccc3cnc(Nc4ccc(C(=O)NC5CCNCC5)cc4)nc32)c1
8 | 1010 nM | 10 nM | CN(C)C1CCN(c2ccc(Nc3ncc4ccn(-c5ccc(F)c(NS(=O)(=O)C6CC6)c5)c4n3)cc2)CC1
9 | 3200 nM | 19 nM | CNC(=O)N1CCN(c2ccc(Nc3ncc4ccn(-c5cccc(NS(=O)(=O)C(C)(C)C)c5)c4n3)cc2)CC1
10 | 10000 nM | 456 nM | CC(=O)N1CCC(c2ccc(Nc3ncc4ccn(-c5cccc(NS(=O)(=O)C(C)(C)C)c5)c4n3)cc2)CC1
11 | 10000 nM | 140 nM | CC(=O)N1CCC(c2ccc(Nc3ncc4ccn(-c5cccc(NS(=O)(=O)C6CC6)c5)c4n3)cc2)CC1
12 | 561 nM | 22 nM | CNc1cc(Nc2ncc3ccn(-c4cccc(NS(=O)(=O)C(C)(C)C)c4)c3n2)ccc1N1CCN(C)CC1
13 | 258 nM | 82 nM | CN(C)C1CCN(c2ccc(Nc3ncc4ccn(-c5ccc(F)c(NS(=O)(=O)C(C)(C)C)c5)c4n3)cc2)CC1
14 | 123 nM | 170 nM | CN(C)C1CCN(C(=O)c2ccc(Nc3ncc4ccn(-c5ccc(F)c(NS(=O)(=O)C(C)(C)C)c5)c4n3)cc2F)CC1
15 | 10000 nM | 54 nM | CN1CCN(c2ccc(Nc3ncc4ccn(-c5cccc(NC(=O)C(C)(C)C)c5)c4n3)cc2)CC1
16 | 149 nM | 62 nM | CN1CCN(c2ccc(Nc3ncc4ccn(-c5ccc(F)c(NS(=O)(=O)C(C)(C)C)c5)c4n3)cc2F)CC1
17 | 682 nM | 20 nM | CC(C)(C)S(=O)(=O)Nc1cccc(-n2ccc3cnc(Nc4ccc(NCCN)cc4)nc32)c1
18 | 4600 nM | 40 nM | CC(C)(C)S(=O)(=O)Nc1cccc(-n2ccc3cnc(Nc4ccc(N5CCN(S(C)(=O)=O)CC5)cc4)nc32)c1
19 | 8300 nM | 120 nM | CC(C)S(=O)(=O)N1CCN(c2ccc(Nc3ncc4ccn(-c5cccc(NS(=O)(=O)C(C)(C)C)c5)c4n3)cc2)CC1

More lines, now with the values behind:

Row | SMILES | IC50 (BRD4-BD1) | IC50 (JAK2)
20 | CN1CCC(NC(=O)c2ccc(Nc3ncc4ccn(-c5cccc(NS(=O)(=O)C6CC6)c5)c4n3)cc2F)CC1 | 856 nM | 13 nM
21 | CN1CCN(c2ccc(Nc3ncc4ccn(-c5ccc(C#N)c(NS(=O)(=O)C6CC6)c5)c4n3)cc2)CC1 | 1800 nM | 78 nM
22 | CN1CCC(NC(=O)c2ccc(Nc3ncc4ccn(-c5cccc(NS(=O)(=O)C6CC6)c5)c4n3)cc2)CC1 | 1900 nM | 44 nM
23 | CN1CCC(c2ccc(Nc3ncc4ccn(-c5cccc(NS(=O)(=O)C6CC6)c5)c4n3)cc2)CC1 | 2720 nM | 51 nM
24 | O=S(=O)(Nc1cccc(-n2ccc3cnc(Nc4ccc(C5CCNCC5)cc4)nc32)c1)C1CC1 | 3210 nM | 71 nM
25 | CC(=O)N1CCN(c2ccc(Nc3ncc4ccn(-c5cccc(NS(=O)(=O)C6CC6)c5)c4n3)cc2)CC1 | 5730 nM | 24900 nM
26 | CN1CCC(NC(=O)c2ccc(Nc3ncc4ccn(-c5ccc(F)c(NS(=O)(=O)C6CC6)c5)c4n3)cc2)CC1 | 1130 nM | 152 nM
27 | CN1CCN(C(=O)Cc2ccc(Nc3ncc4ccn(-c5cccc(NS(=O)(=O)C(C)(C)C)c5)c4n3)cc2)CC1 | 916 nM | 176 nM
28 | CC(C)(C)S(=O)(=O)Nc1cc(-n2ccc3cnc(Nc4ccc(C5CCNCC5)cc4)nc32)ccc1F | 475 nM | 1600 nM
29 | O=C(NC1CCNCC1)c1ccc(Nc2ncc3ccn(-c4cccc(NS(=O)(=O)C5CC5)c4)c3n2)cc1 | 2100 nM | 40 nM
30 | CN1CCN(C(=O)Cc2ccc(Nc3ncc4ccn(-c5cccc(NS(=O)(=O)C6CC6)c5)c4n3)cc2)CC1 | 4010 nM | 182 nM
31 | COc1cc(Nc2ncc3ccn(-c4cccc(NS(=O)(=O)C5CC5)c4)c3n2)ccc1N1CCN(C)CC1 | 1810 nM | 15 nM
32 | CN1CCN(c2ccc(Nc3ncc4ccn(-c5cccc6c5CCN6S(=O)(=O)C(C)(C)C)c4n3)cc2)CC1 | 10000 nM | 8 nM
33 | CN(C)C1CCN(c2ccc(Nc3ncc4ccn(-c5cccc(NS(=O)(=O)C6CC6)c5)c4n3)cc2)CC1 | 866 nM | 14 nM
34 | NC(=O)N1CCN(c2ccc(Nc3ncc4ccn(-c5cccc(NS(=O)(=O)C6CC6)c5)c4n3)cc2)CC1 | 10000 nM | 11 nM
35 | CN1CCN(C(=O)c2ccc(Nc3ncc4ccn(-c5cccc(NS(=O)(=O)C(C)(C)C)c5)c4n3)cc2)CC1 | 771 nM | 28 nM
36 | COc1cc(Nc2ncc3ccn(-c4ccc(F)c(NS(=O)(=O)C(C)(C)C)c4)c3n2)ccc1N1CCN(C)CC1 | 272 nM | 90 nM
37 | CNc1nc(NC2CCNCC2)nc2c1ccn2-c1cccc(NS(=O)(=O)C(C)(C)C)c1 | 774 nM | 10000 nM
38 | CN1CCN(c2cccc(Nc3ncc4ccn(-c5cccc(NS(=O)(=O)C(C)(C)C)c5)c4n3)c2)CC1 | 1700 nM | 74 nM
39 | CN1CCN(c2ccc(Nc3ncc4ccn(-c5cccc(N(C)S(=O)(=O)C(C)(C)C)c5)c4n3)cc2)CC1 | 1100 nM | 9 nM
40 | CC(C)(C)S(=O)(=O)Nc1cccc(-n2ccc3cnc(Nc4ccc(CC(=O)NCCN)cc4)nc32)c1 | 406 nM | 64 nM
41 | CNCCNc1ccc(Nc2ncc3ccn(-c4cccc(NS(=O)(=O)C(C)(C)C)c4)c3n2)cc1 | 407 nM | 24 nM
42 | CN1CCN(C(=O)Cc2ccc(Nc3ncc4ccn(-c5ccc(F)c(NS(=O)(=O)C(C)(C)C)c5)c4n3)cc2)CC1 | 643 nM | 239 nM
43 | CN1CCN(c2ccc(Nc3ncc4ccn(-c5ccccc5NS(=O)(=O)C(C)(C)C)c4n3)cc2)CC1 | 10000 nM | 2400 nM
44 | CNCCNC(=O)Cc1ccc(Nc2ncc3ccn(-c4ccc(F)c(NS(=O)(=O)C(C)(C)C)c4)c3n2)cc1 | 193 nM | 359 nM
45 | CN(C)C1CCN(Cc2ccc(Nc3ncc4ccn(-c5cccc(NS(=O)(=O)C(C)(C)C)c5)c4n3)cc2F)CC1 | 145 nM | 51 nM
46 | CN(C)C1CCN(Cc2ccc(Nc3ncc4ccn(-c5ccc(F)c(NS(=O)(=O)C(C)(C)C)c5)c4n3)cc2F)CC1 | 105 nM | 265 nM
47 | CC(C)(C)S(=O)(=O)Nc1cc(-n2ccc3cnc(Nc4ccc(N5CCN(S(C)(=O)=O)CC5)c(F)c4)nc32)ccc1F | 1400 nM | 400 nM
48 | CNC(=O)C1CCN(c2ccc(Nc3ncc4ccn(-c5ccc(F)c(NS(=O)(=O)C(C)(C)C)c5)c4n3)cc2F)CC1 | 735 nM | 123 nM
